{"source": "patent US5192756A", "about": "“Aminosterol antibiotic” (The Children's Hospital of Pennsylvania, priority 1992, dated 1993)", "key": {"Pseudomonas aeruginosa": {"system": "Pseudomonas aeruginosa", "assay": "Minimal inhibitory concentration, Pseudomonas aeruginosa", "type": "cell-based", "conditions": "ATCC27853; Pseudomonas aeruginosa ATCC 27853; 1/2×TSB, 37° C., 18 to 24 hours", "experimental": "(§1) Squalamine was assayed in vitro against several microbial organisms to evaluate its spectrum of activity.\n(§2) Minimal inhibitory concentrations for the bacteria and yeast were determined by incubating 0.9-11×10^5 colony-forming units/ml of log-phase organisms in 1/2×tryptica soy broth (TSB) with increasing concentrations of sample in static 96-2311 microtiter plates (Corning, Inc., Corning, N.Y.) at 37° C. for 18 to 24 hours. The minimal inhibitory concentration is the concentration of sample at which no growth was observed. Control incubation in the absence of […] served to set a baseline value.\n(§3) Initial sample concentrations were 2 mg/ml in 250 mM sodium acetate pH 6.6, 11.2 mM HCl, except taurolithocholic acid 3-sulfate which was 2 mg/ml in 50 mM sodium acetate, and squalamine to which HCl was not added because it was acidic following the last step of purification. Spermidine HCl, taurolithocholic acid 3-sulfate, melittin, holothurin and ampicillin were purchased from Sigma (St. Louis, Miss.). CHAPS (3-[(3-cholamidopropyl)dimethylammonio]-1-propane sulfonate dihydrate) was purchased from Aldrich (Milwaukee, Wis.). Conessine was purchased from Aldrich Rare Chemicals Division (Milwaukee, Wis.). Magainin-II amide and CPF-amide were made by Magainin Pharmaceuticals, Inc. (Plymouth Meeting, Penn.). The CPF peptide used in the assay has the sequence […]-NH2. (Richter, K., et al., J. Biol. Chem. 261, 3676-3680 (1986)."}, "Proteus vulgaris": {"system": "Proteus vulgaris", "assay": "Minimal inhibitory concentration, Proteus vulgaris", "type": "cell-based", "conditions": "ATCC13315; Proteus vulgaris ATCC 13315; 1/2×TSB, 37° C., 18 to 24 hours", "experimental": "as §1, §2, §3"}, "human erythrocytes": {"system": "human erythrocytes", "assay": "Hemolytic activity against human erythrocytes", "type": "cell-based", "experimental": "Because of its structural resemblance to steroidal detergents, squalamine was assayed for its hemolytic activity against human erythrocytes.\nEach sample was diluted in H2 O and was added to a 10% (vol/vol) suspension of human erythrocytes in phosphate buffered saline (PBS). Erythrocytes were collected with heparin and washed once in 1×PBS before the assay. Samples were incubated at 37° C. for ten minutes, centrifuged at 12,000× g for one minute, and the OD350 of the supernatant was measured. Addition of Triton X-100 (final concentration 0.1%) defined 100% hemolysis."}, "Candida albicans": {"system": "Candida albicans", "assay": "Minimal inhibitory concentration, Candida albicans", "type": "cell-based", "conditions": "ATCC14053; Candida albicans ATCC 14053; 1/2×TSB, 37° C., 18 to 24 hours", "experimental": "as §1, §2, §3"}, "Paramecium caudatum": {"system": "Paramecium caudatum", "assay": "Minimal disruptive concentration, Paramecium caudatum", "type": "cell-based", "conditions": "1% trypticase soy broth, light microscopy for ten minutes, read-out: Minimal Inhibitory Concentration (minimal disruptive concentration for the protozoa)", "experimental": "as §1, §3\n(§4) Minimal disruptive concentration (the concentration at which physical disruption of the protozoa occurred) was determined for the protozoa by adding […] of sample (in sodium acetate as above) to […] of 1% trypticase soy broth containing P. caudatum (Nasco, Fort Atkinson, Wiss,). Organisms were observed by light microscopy for ten minutes."}, "E. coli": {"system": "E. coli", "assay": "Minimal inhibitory concentration, E. coli", "type": "cell-based", "conditions": "Escherichia coli, ATCC25922; E. coli ATCC 25922; 1/2×TSB, 37° C., 18 to 24 hours", "experimental": "as §1, §2, §3"}, "E. coli D31 [1]": {"system": "E. coli D31", "assay": "Heat resistance of antimicrobial activity (boiling)", "type": "physicochemical", "conditions": "0.2 μg/ml in 1×phosphate buffered saline, boiled fifteen minutes, E. coli D31 lawn", "experimental": "Squalamine at 0.2 μg/ml in 1×phosphate buffered saline was boiled for fifteen minutes. A 2 μl aliquot of the sample before and after boiling was applied to a lawn of E. coli D31."}, "Serratia marcescens": {"system": "Serratia marcescens", "assay": "Minimal inhibitory concentration, Serratia marcescens", "type": "cell-based", "conditions": "ATCC8100; Serratia marcescens ATCC 8100; 1/2×TSB, 37° C., 18 to 24 hours", "experimental": "as §1, §2, §3"}, "[2]": {"system": "several microbial organisms", "assay": "In vitro antimicrobial spectrum (bacteria, fungi, protozoa), in words", "type": "cell-based", "experimental": "as §1, §2, §3, §4"}, "[3]": {"assay": "Tissue distribution of squalamine in Squalus acanthias", "experimental": "The tissue distribution of squalamine was determined by extraction of freshly obtained tissues of Squalus using the same procedure as described in Example 1 for the stomach extraction. Other Squalus acanthias tissues (about 50 g of liver, gallbladder, spleen, testes, gill and intestine) were extracted as above, and purified through the C18 HPLC stage. Antimicrobial activity was detected in each tissue, and one reversed-phasefraction from each tissue was analyzed by FAB mass spectroscopy. The yield from the stomach was determined by spotting several dilutions onto a TLC plate and comparing the ninhydrin staining to a spermidine standard curve. The result agreed with the estimate obtained by NMR spectroscopy when the squalamine signal intensity was compared to that of a standard. An estimate of the yield of squalamine from other tissues was made by comparing the antimicrobial activity of reversed-phase fractions to the activity from the stomach."}, "Staph. aureus": {"system": "Staph. aureus", "assay": "Minimal inhibitory concentration, Staph. aureus", "type": "cell-based", "conditions": "Staphylococcus aureus, ATCC29213; Staph. aureus ATCC 29213; 1/2×TSB, 37° C., 18 to 24 hours", "experimental": "as §1, §2, §3"}, "Strep. faecalis": {"system": "Strep. faecalis", "assay": "Minimal inhibitory concentration, Strep. faecalis", "type": "cell-based", "conditions": "Enterococcus faecalis, ATCC29212; Strep. faecalis ATCC 29212; 1/2×TSB, 37° C., 18 to 24 hours", "experimental": "as §1, §2, §3"}, "E. coli D31 [4]": {"system": "E. coli D31", "assay": "Protease resistance of antimicrobial activity (proteinase K)", "type": "in vitro ADME", "conditions": "proteinase K 2 mg/ml, one hour, 37° C.; E. coli D31 lawn", "experimental": "Proteinase K (final concentration 2 mg/ml) was added to 0.2 μg/μl squalamine or 0.8 μg/μl magainin II amide in 1×phosphate-buffered saline. After a one hour incubation at 37° C., 2 μl of each sample was applied to the lawn of E. coli D31."}}, "note": "“Also recorded” adds a separate entry of the source.", "data": [{"molecule": "CC(C)C(CC[C@@H](C)[C@H]1CC[C@H]2[C@@H]3[C@H](O)C[C@H]4C[C@@H](NCCCNCCCCN)CC[C@]4(C)[C@H]3CC[C@]12C)OS(=O)(=O)O", "note": "(stereo partly drawn) [Squalamine, 3β(N-[3-aminopropyl]-1,4-butanediamine)-7α,24.zeta.-dihydroxy-5α-cholestane 24-sulfate]", "values": [{"measurement": "MIC", "setting": "Pseudomonas aeruginosa", "result": "4 to 8", "unit": "µg/mL"}, {"measurement": "MIC", "setting": "Proteus vulgaris", "result": "4 to 8", "unit": "µg/mL"}, {"measurement": "hemolytic activity (in words)", "setting": "human erythrocytes; FIG. 3, 37° C., ten minutes", "result": "exhibits some hemolytic activity, it occurs at higher concentrations than observed for a non-selective membrane disruptive amphipathic peptide, such as mellitin"}, {"measurement": "antibiotic versus hemolytic concentration / selectivity (in words)", "setting": "human erythrocytes; antibiotic activity compared with erythrocyte disruption", "result": "exerts antibiotic activity at concentrations below which erythrocyte disruption is observed"}, {"measurement": "MIC", "setting": "Candida albicans", "result": "4 to 8", "unit": "µg/mL"}, {"measurement": "MIC", "setting": "Paramecium caudatum", "result": "4 to 8", "unit": "µg/mL"}, {"measurement": "MIC", "setting": "E. coli", "result": "1 to 2", "unit": "µg/mL"}, {"measurement": "antimicrobial activity after boiling", "setting": "E. coli D31 [1]", "result": "retained its antimicrobial activity after boiling"}, {"measurement": "antimicrobial activity after boiling", "setting": "E. coli D31 [1]; listed as squalamine", "result": "resistant to boiling and protease treatment"}, {"measurement": "MIC", "setting": "Serratia marcescens", "result": "> 125", "unit": "µg/mL"}, {"measurement": "antibacterial activity (in words)", "setting": "[2]; bacteria of Table I", "result": "compares in antibacterial potency to ampicillin"}, {"measurement": "antibiotic activity (in words)", "setting": "[2]; bacteria, fungi, protozoa, concentration range studied", "result": "broad range of potent antibiotic activity against a plurality of microorganisms including gram-positive and gram-negative bacteria, fungi, protozoa and the like; also recorded: somewhat more potent than the Xenopus antimicrobial peptides"}, {"measurement": "squalamine content of tissue", "setting": "[3]; gills", "result": 0.5, "unit": "μg/gm"}, {"measurement": "squalamine content of tissue", "setting": "[3]; intestine", "result": 0.02, "unit": "μg/gm"}, {"measurement": "squalamine content of tissue", "setting": "[3]; liver and gall bladder", "result": "4-7 μg/gm"}, {"measurement": "squalamine content of tissue", "setting": "[3]; spleen", "result": "about 2 μg/gm"}, {"measurement": "squalamine content of tissue", "setting": "[3]; stomach", "result": 1, "unit": "μg/gm"}, {"measurement": "squalamine content of tissue", "setting": "[3]; testes", "result": "about 2 μg/gm"}, {"measurement": "MIC", "setting": "Staph. aureus", "result": "1 to 2", "unit": "µg/mL"}, {"measurement": "MIC", "setting": "Strep. faecalis", "result": "1 to 2", "unit": "µg/mL"}, {"measurement": "antimicrobial activity after proteinase K digestion", "setting": "E. coli D31 [4]", "result": "retained its activity; also recorded: resistant to boiling and protease treatment"}]}]}
